Measurements from ChEMBL document CHEMBL5634161, “Discovery of benzamide-based PI3K/HDAC dual inhibitors with marked pro-apoptosis activity in lymphoma cells” (Eur J Med Chem, 2023).
Each block holds one compound with its values, some of them ahead of it. Activity calls are given as the source filed them. No cut-off for these calls is given here.

Assays:
[1] = target: Phosphatidylinositol 4,5-bisphosphate 3-kinase catalytic subunit alpha isoform (Homo sapiens, UniProt P42336); assay: Inhibition of PI3Kalpha (unknown origin) using PIP2 as substrate incubated for 1 hrs in presence of ATP by ADP-Glo kinase assay
[2] = tested on: JeKo-1; assay: Antiproliferative activity against human JeKo-1 cells incubated for 48 hrs by resazurin dye based fluorescence micro plate reader analysis; type: functional, cell-based; conditions: JeKo-1, 48 h
[3] = tested on: JeKo-1; assay: Induction of apoptosis in human JeKo-1 cells assessed as necrotic cells at 1 uM incubated for 48 hrs by Annexin-V/FITC and PI staining based flow cytometric analysis (reference value: 1.05%); type: functional
[4] = Cytotoxicity against human HL7702 cells incubated for 48 hrs by resazurin dye based fluorescence micro plate reader analysis; type: toxicity, cell-based; conditions: HL7702 (L02) cells
[5] = tested on: JeKo-1; assay: Induction of apoptosis in human JeKo-1 cells assessed as viable cells at 0.5 uM incubated for 48 hrs by Annexin-V/FITC and PI staining based flow cytometric analysis (reference value: 94.1%); type: functional; conditions: read-out: Activity
[6] = tested on: JeKo-1; assay: Effect on total AKT protein level in human JeKo-1 cells at 0.25 uM incubated for 24 hrs by Western blot analysis; type: functional, cell-based
[7] = tested on: HL-60; assay: Antiproliferative activity against human HL-60 cells incubated for 48 hrs by resazurin dye based fluorescence micro plate reader analysis; type: functional, cell-based; conditions: HL-60, 48 h
[8] = tested on: JeKo-1; assay: Induction of apoptosis in human JeKo-1 cells assessed as necrotic cells at 0.25 uM incubated for 48 hrs by Annexin-V/FITC and PI staining based flow cytometric analysis (reference value: 1.05%); type: functional
[9] = Inhibition of PI3K/AKT/mTOR signaling in human JeKo-1 cells assessed as decrease in AKT phosphorylation at S473 residue at 0.25 uM incubated for 24 hrs by Western blot analysis; type: cell-based
[10] = tested on: JeKo-1; assay: Induction of apoptosis in human JeKo-1 cells assessed as viable cells at 1 uM incubated for 48 hrs by Annexin-V/FITC and PI staining based flow cytometric analysis (reference value: 94.1%); type: functional; conditions: read-out: Activity
[11] = tested on: JeKo-1; assay: Induction of apoptosis in human JeKo-1 cells assessed as late apoptotic cells at 1 uM incubated for 48 hrs by Annexin-V/FITC and PI staining based flow cytometric analysis (reference value: 3.66%); type: functional
[12] = tested on: MDA-MB-231; assay: Antiproliferative activity against human MDA-MB-231 cells incubated for 48 hrs by resazurin dye based fluorescence micro plate reader analysis; type: functional, cell-based; conditions: MDA-MB-231, 48 h
[13] = tested on: JeKo-1; assay: Induction of apoptosis in human JeKo-1 cells assessed as late apoptotic cells at 0.5 uM incubated for 48 hrs by Annexin-V/FITC and PI staining based flow cytometric analysis (reference value: 3.66%); type: functional
[14] = tested on: JeKo-1; assay: Induction of apoptosis in human JeKo-1 cells assessed as late apoptotic cells at 0.25 uM incubated for 48 hrs by Annexin-V/FITC and PI staining based flow cytometric analysis (reference value: 3.66%); type: functional
[15] = tested on: MM1.S; assay: Antiproliferative activity against human MM1.S cells incubated for 48 hrs by resazurin dye based fluorescence micro plate reader analysis; type: functional, cell-based
[16] = tested on: JeKo-1; assay: Induction of apoptosis in human JeKo-1 cells assessed as viable cells at 0.25 uM incubated for 48 hrs by Annexin-V/FITC and PI staining based flow cytometric analysis (reference value: 94.1%); type: functional; conditions: read-out: Activity
[17] = tested on: JeKo-1; assay: Induction of apoptosis in human JeKo-1 cells assessed as necrotic cells at 0.5 uM incubated for 48 hrs by Annexin-V/FITC and PI staining based flow cytometric analysis (reference value: 1.05%); type: functional
[18] = tested on: JeKo-1; assay: Potentiation of CI994-induced apoptosis in human JeKo-1 cells; type: functional, cell-based
[19] = tested on: JeKo-1; assay: (§1) Synergistic antiproliferative activity against human JeKo-1 cells assessed as combination index at 1.25 uM incubated for 48 hrs in presence of 5 uM 4-(3-(4-(4-methoxy-6-morpholino-1,3,5-triazin-2-yl)phenyl)urea)-N-(2-ethylamino)ethylbenzamide by resazurin dye based fluorescence microplate reader analysis; type: functional
[20] = tested on: JeKo-1; assay: as §1, with “at 5” for “at 1.25”, “of 1.25” for “of 5”; type: functional
[21] = tested on: JeKo-1; assay: as §1, with “at 0.625” for “at 1.25”, “of 1.25” for “of 5”; type: functional
[22] = tested on: JeKo-1; assay: as §1, with “of 2.5” for “of 5”; type: functional
[23] = tested on: JeKo-1; assay: as §1, with “5” for “1.25”; type: functional
[24] = tested on: JeKo-1; assay: Induction of apoptosis in human JeKo-1 cells assessed as early apoptotic cells at 1 uM incubated for 48 hrs by Annexin-V/FITC and PI staining based flow cytometric analysis (reference value: […]); type: functional
[25] = tested on: JeKo-1; assay: as §1, with “2.5” for “1.25”; type: functional
[26] = tested on: JeKo-1; assay: as §1, with “at 2.5” for “at 1.25”, “of 1.25” for “of 5”; type: functional
[27] = tested on: JeKo-1; assay: as §1, with “at 2.5” for “at 1.25”, “of 0.625” for “of 5”; type: functional
[28] = tested on: JeKo-1; assay: as §1, with “at 0.625” for “at 1.25”, “of 2.5” for “of 5”; type: functional
[29] = tested on: JeKo-1; assay: as §1, with “of 0.625” for “of 5”; type: functional
[30] = tested on: JeKo-1; assay: Induction of apoptosis in human JeKo-1 cells assessed as early apoptotic cells at 0.5 uM incubated for 48 hrs by Annexin-V/FITC and PI staining based flow cytometric analysis (reference value: […]); type: functional
[31] = tested on: JeKo-1; assay: as §1, with “of 1.25” for “of 5”; type: functional
[32] = tested on: JeKo-1; assay: as §1, with “at 5” for “at 1.25”, “of 0.625” for “of 5”; type: functional
[33] = tested on: JeKo-1; assay: as §1, with “at 5” for “at 1.25”, “of 2.5” for “of 5”; type: functional
[34] = tested on: JeKo-1; assay: Induction of apoptosis in human JeKo-1 cells assessed as early apoptotic cells at 0.25 uM incubated for 48 hrs by Annexin-V/FITC and PI staining based flow cytometric analysis (reference value: […]); type: functional
[35] = tested on: JeKo-1; assay: as §1, with “at 2.5” for “at 1.25”, “of 2.5” for “of 5”; type: functional
[36] = tested on: JeKo-1; assay: as §1, with “0.625” for “1.25”; type: functional
[37] = tested on: JeKo-1; assay: as §1, with “at 0.625” for “at 1.25”, “of 0.625” for “of 5”; type: functional
[38] = target: Histone deacetylase 3 (Homo sapiens, UniProt O15379); assay: Inhibition of HDAC3 (unknown origin) using Boc-Lys(acetyl)-AMC as substrate preincubated for 1 hrs followed by substrate addition and measured after 2 hrs by spectrophotometer based fluorometric assay
[39] = target: Histone deacetylase 2 (Homo sapiens, UniProt Q92769); assay: Inhibition of HDAC2 (unknown origin) using Boc-Lys(acetyl)-AMC as substrate preincubated for 1 hrs followed by substrate addition and measured after 2 hrs by spectrophotometer based fluorometric assay
[40] = target: Histone deacetylase 1 (Homo sapiens, UniProt Q13547); assay: Inhibition of HDAC1 (unknown origin) using Boc-Lys(acetyl)-AMC as substrate preincubated for 1 hrs followed by substrate addition and measured after 2 hrs by spectrophotometer based fluorometric assay
Sequence of Histone deacetylase 1 (Q13547 whole entry): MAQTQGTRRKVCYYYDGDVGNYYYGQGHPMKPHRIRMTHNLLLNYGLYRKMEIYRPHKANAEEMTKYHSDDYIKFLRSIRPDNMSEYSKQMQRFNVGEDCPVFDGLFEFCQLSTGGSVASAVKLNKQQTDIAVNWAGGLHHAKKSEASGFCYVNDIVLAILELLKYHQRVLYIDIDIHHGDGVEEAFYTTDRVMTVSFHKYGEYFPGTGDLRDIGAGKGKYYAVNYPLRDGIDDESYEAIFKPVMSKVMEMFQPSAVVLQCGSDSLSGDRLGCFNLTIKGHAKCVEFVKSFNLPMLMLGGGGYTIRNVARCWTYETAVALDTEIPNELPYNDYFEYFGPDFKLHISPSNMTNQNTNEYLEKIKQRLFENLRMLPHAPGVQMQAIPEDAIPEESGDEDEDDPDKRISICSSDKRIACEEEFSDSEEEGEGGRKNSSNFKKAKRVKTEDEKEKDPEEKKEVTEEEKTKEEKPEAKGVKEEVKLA

Sequence of Histone deacetylase 3 (O15379 whole entry): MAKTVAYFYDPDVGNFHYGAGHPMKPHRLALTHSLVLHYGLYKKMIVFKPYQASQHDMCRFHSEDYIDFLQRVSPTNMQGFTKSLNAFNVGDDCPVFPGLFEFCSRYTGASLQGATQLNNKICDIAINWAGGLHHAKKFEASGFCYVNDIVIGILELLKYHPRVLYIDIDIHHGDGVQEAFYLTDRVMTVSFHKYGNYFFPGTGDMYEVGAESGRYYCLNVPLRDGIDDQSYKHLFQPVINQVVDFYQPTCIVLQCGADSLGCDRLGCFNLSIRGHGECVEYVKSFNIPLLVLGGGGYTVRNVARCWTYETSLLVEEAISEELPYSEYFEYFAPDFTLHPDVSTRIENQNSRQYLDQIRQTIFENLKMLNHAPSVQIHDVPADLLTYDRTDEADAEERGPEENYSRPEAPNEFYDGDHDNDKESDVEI
Sequence of Phosphatidylinositol 4,5-bisphosphate 3-kinase catalytic subunit alpha isoform (P42336 whole entry, canonical isoform): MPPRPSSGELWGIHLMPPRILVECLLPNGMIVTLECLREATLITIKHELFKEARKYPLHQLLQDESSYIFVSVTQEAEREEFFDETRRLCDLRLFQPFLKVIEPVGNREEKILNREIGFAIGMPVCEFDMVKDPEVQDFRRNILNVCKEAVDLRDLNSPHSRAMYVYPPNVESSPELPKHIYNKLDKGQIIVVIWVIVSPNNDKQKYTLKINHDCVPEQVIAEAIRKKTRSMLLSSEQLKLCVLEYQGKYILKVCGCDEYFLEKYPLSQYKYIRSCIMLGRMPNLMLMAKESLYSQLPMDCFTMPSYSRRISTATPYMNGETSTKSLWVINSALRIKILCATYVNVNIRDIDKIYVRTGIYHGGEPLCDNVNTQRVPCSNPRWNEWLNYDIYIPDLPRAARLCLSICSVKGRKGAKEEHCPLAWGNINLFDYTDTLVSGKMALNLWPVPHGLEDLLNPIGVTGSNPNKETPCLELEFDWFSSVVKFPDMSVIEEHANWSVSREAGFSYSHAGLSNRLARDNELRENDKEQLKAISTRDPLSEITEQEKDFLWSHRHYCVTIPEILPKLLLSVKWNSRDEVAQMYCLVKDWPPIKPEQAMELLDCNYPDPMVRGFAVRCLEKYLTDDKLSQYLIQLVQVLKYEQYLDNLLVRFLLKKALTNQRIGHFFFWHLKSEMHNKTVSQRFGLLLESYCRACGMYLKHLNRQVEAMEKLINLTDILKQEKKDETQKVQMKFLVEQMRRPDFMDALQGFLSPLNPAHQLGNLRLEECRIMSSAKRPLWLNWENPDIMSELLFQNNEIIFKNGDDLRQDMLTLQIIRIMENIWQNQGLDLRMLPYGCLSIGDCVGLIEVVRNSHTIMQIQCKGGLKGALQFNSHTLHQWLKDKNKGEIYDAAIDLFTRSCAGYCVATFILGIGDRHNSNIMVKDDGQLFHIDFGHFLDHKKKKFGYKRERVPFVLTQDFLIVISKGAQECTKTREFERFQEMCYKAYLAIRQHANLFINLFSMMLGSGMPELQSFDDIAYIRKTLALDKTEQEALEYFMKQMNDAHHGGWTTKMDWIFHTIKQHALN
Sequence of Histone deacetylase 2 (Q92769 whole entry): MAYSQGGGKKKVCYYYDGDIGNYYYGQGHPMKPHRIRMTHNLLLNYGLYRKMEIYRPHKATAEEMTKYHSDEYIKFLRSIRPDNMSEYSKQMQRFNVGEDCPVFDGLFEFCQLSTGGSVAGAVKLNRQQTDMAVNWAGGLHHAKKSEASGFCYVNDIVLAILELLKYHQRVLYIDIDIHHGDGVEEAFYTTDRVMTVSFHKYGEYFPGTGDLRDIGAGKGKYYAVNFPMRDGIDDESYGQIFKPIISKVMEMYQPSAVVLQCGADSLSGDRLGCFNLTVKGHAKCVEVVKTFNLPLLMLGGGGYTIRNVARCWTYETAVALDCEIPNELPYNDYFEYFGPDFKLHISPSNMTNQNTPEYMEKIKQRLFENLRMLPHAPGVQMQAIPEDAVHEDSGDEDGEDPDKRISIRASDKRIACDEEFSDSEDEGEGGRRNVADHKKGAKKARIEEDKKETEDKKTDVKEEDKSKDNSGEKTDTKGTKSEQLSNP

IC50 [1]: 2.4 nM | IC50 [7]: 3100 nM | IC50 [12]: 4200 nM | IC50 [15]: 3300 nM
SMILES: CNCCNC(=O)c1ccc(NC(=O)Nc2ccc(-c3nc(OC)nc(N4CCOCC4)n3)cc2)cc1
IC50 [2]: 1100 nM | Activity [3]: 0.4% | IC50 at 48 h [4]: > 100000 nM | viability at 0.5 µM [5]: 94.8% | Activity [6]: inactive | Activity [8]: 0.73% | inhibition [9]: Active | viability at 1 µM [10]: 91.5% | Activity [11]: 8.29% | Activity [13]: 3.51% | Activity [14]: 4.5% | viability at 0.25 µM [16]: 93.9% | Activity [17]: 0.41% | Activity [18]: Active

IC50 [1]: > 10000 nM | IC50 [7]: 2800 nM | IC50 [12]: 10900 nM | IC50 [15]: 4700 nM
SMILES: CC(=O)Nc1ccc(C(=O)Nc2ccccc2N)cc1 [TACEDINALINE]
CI [19]: 0.191 | CI [20]: 0.39 | CI [21]: 0.575 | CI [22]: 0.342 | CI [23]: 0.191 | IC50 [2]: 1900 nM | Activity [3]: 0.59% | Activity [24]: 2.3% | CI [25]: 0.119 | IC50 at 48 h [4]: > 100000 nM | CI [26]: 0.443 | viability at 0.5 µM [5]: 92.4% | CI [27]: 0.592 | CI [28]: 0.475 | CI [29]: 0.629 | Activity [30]: 1.48% | CI [31]: 0.431 | Activity [8]: 0.37% | CI [32]: 0.61 | viability at 1 µM [10]: 92.4% | Activity [11]: 4.73% | CI [33]: 0.221 | Activity [13]: 5.62% | Activity [14]: 5.6% | Activity [34]: 1.46% | CI [35]: 0.274 | CI [36]: 0.43 | viability at 0.25 µM [16]: 92.6% | CI [37]: 0.711 | Activity [17]: 0.51%

IC50 [1]: 75.7 nM | IC50 [38]: 210 nM | IC50 [39]: 490 nM | IC50 [40]: 345 nM
SMILES: Nc1ccccc1NC(=O)CCCCCCCNC(=O)c1ccc(NC(=O)Nc2ccc(-c3nc(N4CCOCC4)nc(N4CCOCC4)n3)cc2)cc1

IC50 [1]: 6.5 nM | IC50 [38]: 134 nM | IC50 [39]: > 10000 nM | IC50 [40]: > 10000 nM
SMILES: Nc1ccccc1NC(=O)c1ccc(NC(=O)Nc2ccc(-c3nc(N4CCOCC4)nc(N4CCOCC4)n3)cc2)cc1

IC50 [1]: 51.7 nM | IC50 [38]: > 10000 nM | IC50 [39]: > 10000 nM | IC50 [40]: > 10000 nM
SMILES: Nc1ccccc1NC(=O)CCNC(=O)c1ccc(NC(=O)Nc2ccc(-c3nc(N4CCOCC4)nc(N4CCOCC4)n3)cc2)cc1

IC50 [1]: 11.6 nM | IC50 [38]: > 10000 nM | IC50 [39]: > 10000 nM | IC50 [40]: > 10000 nM
SMILES: Nc1ccccc1NC(=O)CCCNC(=O)c1ccc(NC(=O)Nc2ccc(-c3nc(N4CCOCC4)nc(N4CCOCC4)n3)cc2)cc1

IC50 [1]: 29.3 nM | IC50 [38]: 76.5 nM | IC50 [39]: 295 nM | IC50 [40]: 404 nM
SMILES: Nc1ccccc1NC(=O)CCCCCCNC(=O)c1ccc(NC(=O)Nc2ccc(-c3nc(N4CCOCC4)nc(N4CCOCC4)n3)cc2)cc1

IC50 [1]: 14.3 nM | IC50 [38]: 1410 nM | IC50 [39]: > 10000 nM | IC50 [40]: > 10000 nM
SMILES: Nc1c(NC(=O)c2ccc(NC(=O)Nc3ccc(-c4nc(N5CCOCC5)nc(N5CCOCC5)n4)cc3)cc2)ccc(F)c1F

IC50 [1]: 11.2 nM | IC50 [38]: 334 nM | IC50 [39]: > 10000 nM | IC50 [40]: > 10000 nM
SMILES: COc1nc(-c2ccc(NC(=O)Nc3ccc(C(=O)Nc4ccccc4N)cc3)cc2)nc(N2CCOCC2)n1

IC50 [1]: 2.4 nM | IC50 [38]: > 10000 nM | IC50 [39]: > 10000 nM | IC50 [40]: > 10000 nM
SMILES: Nc1ccccc1NC(=O)c1ccc(NC(=O)Nc2ccc(-c3nc(OC4COC4)nc(N4CCOCC4)n3)cc2)cc1
